Measured values reported in patent US20060019971A1, “Treatment of cardiovascular disease with inhibitors of p38 kinase” (priority 2003, published 2006).
Entries after “also recorded” stand apart in the source; their conditions may differ.

Legend:
Format in all cases: cell-based, human
TF mRNA in HPBMCs = test: Tissue Factor mRNA expression in HPBMCs, real-time PCR; details: 1 μM SD, 6 hours
Protocol: The figures illustrate the effects of CRP on TF protein and mRNA expression in HPBMCs and their modulation by p38 inhibitor. 1.5×10^6 HPBMCs were plated in 48-well. After 1 hour medium was removed and cells were incubated with or without 10 μg/ml of purified human CRP in serum-free RPMI 1640. In parallel experiments, cells were treated with 10% FCS together with the CRP treatment. For the p38 antagonism, p38 inhibitor was added to a final concentration of 1 μM in the parallel treatment. After 16 hours cells were lysed and TF protein level was determined by Western blot. TF signal was normalized by GAPDH signal. As shown in FIG. 7(c), after 6 hours TF mRNA level were determined by real-time PCR as described in the Experimental section. […]
(§1) RNA was extracted from the cells using Qiagen RNA extraction kit according to the manufacturer's instruction. The expression of pro-inflammatory genes IL-1β, IL-6, IL-8, TNFα, COX-2, ET-1, TF were assessed by real-time PCR. […]
(§2) Real-time RT-PCR was performed in a two-step manner. cDNA synthesis and real-time detection were carried out in a PTC-100™ Thermal Cycler (MJ Research Inc, Waltham, Mass.) and an ABI Prism™ 7700 Sequence Detection System (Applied Biosystems, Foster City, Calif.), respectively. […] Relative quantitation of gene expression was performed using the relative standard curve method. […]

TF protein in HPBMCs = test: Tissue Factor protein expression in HPBMCs, Western; details: 1 μM SD, 16 hours
Protocol: The figures illustrate the effects of CRP on TF protein and mRNA expression in HPBMCs and their modulation by p38 inhibitor. 1.5×10^6 HPBMCs were plated in 48-well. After 1 hour medium was removed and cells were incubated with or without 10 μg/ml of purified human CRP in serum-free RPMI 1640. In parallel experiments, cells were treated with 10% FCS together with the CRP treatment. For the p38 antagonism, p38 inhibitor was added to a final concentration of 1 μM in the parallel treatment. After 16 hours cells were lysed and TF protein level was determined by Western blot. TF signal was normalized by GAPDH signal. As shown in FIG. 7(c), after 6 hours TF mRNA level were determined by real-time PCR as described in the Experimental section.
Cryopreserved human peripheral blood monocytes (HPBMCs, from Biowitker, Walkersvill, Md.) were thawed and washed twice in RPMI 1640. Cells were plated in tissue culture plates and incubated in 5% CO2 at 37 C. After 1 hr media were removed and cells were treated with various treatments. After 2 to 20 hours conditioned media and/or cell lysates were collected for the analyses of secreted cytokines, protein or mRNA expression. 10 μg/ml of purified human CRP (Calbiochem, San Diego, Calif.) was used in most of the treatments. In some experiments fetal calf serum (FCS from ATCC) was added to a final concentration of 10% together with CRP. In the examples provided herein, including those assessing the effects of p38 antagonism, cells were pre-treated with SD, a p38 small molecule inhibitor (Compound 162 in Table A) for 1 hour prior to CRP treatment as described above. In a parallel series of experiments, the effect of vehicle (DMSO) was tested. […]
HPBMCs were treated as described above (p38 MAP kinase activation). […] 10 μg total proteins were resolved on LDS-PAGE (In Vitrogen, Carlsbad, Calif.), and tissue factor protein expression was determined by Western using antibody against human tissue factor (American Diagnostica, Stamford, Conn.). […]

TNFα mRNA in HPBMCs = test: TNFα gene expression in HPBMCs, real-time PCR; details: 2 hours
Protocol: 5×10^6 HPBMCs were plated in 6-well. After 1 hour medium was removed and cells were treated with vehicle or 1μM p38 inhibitor in RPMI 1640 medium. After 1 hour cells were stimulated with 10% FCS only or 10 μg/ml CRP plus 10% FCS. After 6 hours conditioned medium was collected and IL-1b and TNFa levels were determined by ELISA. […] 5×10^6 HPBMCs were plated in 6-well. After I hour medium was removed and cells were treated with vehicle or […] p38 inhibitor in RPMI 1640 medium. After 1 hour cells were stimulated with 10% FCS only or 10 μg/ml CRP plus 10% FCS. After 2 hours RNA was extracted from the cells and TNFa (c) and IL-1b (d) expression levels were determined by real-time PCR as described in the Experimental section. […]
as §1, §2

COX-2 mRNA in HPBMCs = test: COX-2 gene expression in HPBMCs, real-time PCR; details: 6 hours
Protocol: 5×10^6 HPBMCs were plated in 6-well. After 1 hour medium was removed and cells were treated with vehicle or 1 μM p38 inhibitor in RPMI 1640 medium. After 1 hour cells were stimulated with 10% FCS only or 10 μg/ml CRP plus 10% FCS. After 6 hours RNA was extracted from the cells and COX-2 gene expression level was determined by real-time PCR as described in the Experimental section.
Cryopreserved human peripheral blood monocytes (HPBMCs, from Biowitker, Walkersvill, Md.) were thawed and washed twice in RPMI 1640. Cells were plated in tissue culture plates and incubated in 5% CO2 at 37 C. After 1 hr media were removed and cells were treated with various treatments. After 2 to 20 hours conditioned media and/or cell lysates were collected for the analyses of secreted cytokines, protein or mRNA expression. […]
as §1, §2

Question: For `C[C@@H]1CN(Cc2ccc(F)cc2)[C@@H](C)CN1C(=O)c1cc2c(C(=O)C(=O)N(C)C)c[nH]c2cc1Cl` [Compound 162], which “inhibition of basal TF mRNA expression” value (TF mRNA in HPBMCs) is on record?
Answer: almost completely inhibitied

Question: And the “inhibition of CRP induced TF mRNA expression” value (TF mRNA in HPBMCs; listed as SD)?
Answer: almost completely inhibitied; also recorded: blocked

Question: And the “reduction of TF protein expression invoked by CRP plus FCS” value (TF protein in HPBMCs)?
Answer: to control level

Question: And the “reduction of TF protein expression invoked by FCS” value (TF protein in HPBMCs)?
Answer: to control level

Question: What about the “reduction of TF protein expression invoked by CRP” value (TF protein in HPBMCs; listed as SD) of the same compound?
Answer: to control level; also recorded: blocked

Question: And the “inhibition of CRP augmented TNFα transcription” value (TNFα mRNA in HPBMCs; 1 μM SD)?
Answer: completely attenuated

Question: What about the “FCS induced TNFα transcription, sensitivity to SD treatment” value (TNFα mRNA in HPBMCs; 10% FCS) of the same compound?
Answer: sensitive

Question: What about the “inhibition of CRP-invoked COX-2 mRNA expression” value (COX-2 mRNA in HPBMCs; 1 μM SD pre-treatment, listed as SD) of the same compound?
Answer: almost completely blocked; also recorded: almost completely inhibited

Question: And the “inhibition of FCS induced COX-2 mRNA” value (COX-2 mRNA in HPBMCs; 1 μM SD)?
Answer: completely inhibited
